Measured values published in PubChem BioAssay AID1963833 (Molecular Pharmacology Branch, DTP, NCI, 2024).
pIC50: −log10 of the molar value. Values joined by “and” are separate entries in the source; they are usually repeats but may differ in a detail not shown here. Equal values may be shown once.

System: 883617-216-R-J1-PDC complex spheroid viability
Assay: Anticancer human tumor 883617-216-R-J1-PDC patient-derived bladder carcinoma cell line growth inhibition [POLQ]
Details: for viability, T/C: stronger effect = lower value
Experimental: Multicellular complex tumor spheroid response to Polymerase (POL) inhibitors (novobiocin, ART-558, RP6685) in combination with a variety of drugs and investigational agents in selected tumor cell lines
The POL inhibitors (novobiocin, ART-558, and RP6685) were evaluated both individually and in combination with standard of care and investigational anticancer small molecules within a complex spheroid model of solid tumors. . Complex spheroids include a stromal component modeled by human endothelial cells (HUVEC) and fibroblasts modeled by human mesenchymal stem cells (MSCs). The concentration ranges selected for each drug and investigational agent were based upon clinically achievable concentrations if the clinical Cmax of the agent was known.
Compounds. The drugs and investigational agents: novobiocin (NSC847541), ART-558 (NSC835418), RP-6685 (NSC848927), peposertib (NSC802822), ceralasertib (NSC780249), elimusertib (NSC800525), camonsertib (NSC841442), AZD-1390 (NSC803789), olaparib (NSC753686), talazoparib (NSC767125), rucaparib (NSC756644), sotorasib (NSC818433), MRTX-1133 (NSC836407), SN-38 (NSC673596), topotecan (NSC609699), epotoside (NSC141540), doxorubicin (NSC123127), gemcitabine (NSC613327), 5-fluorouracil (NSC19893), paclitaxel (NSC125973), vemurafenib (NSC761431), MSA-2 (NSC828583), SN-011 (NSC837082), adavosertib (NSC754352), prexasertib (NSC758257), carboplatin (NSC241240) and oxaliplatin (NSC266046), were obtained from the National Cancer Institute (NCI) Developmental Therapeutics Program Chemical Repository (21). The FDA-approved anticancer drug set is available from the Developmental Therapeutics Program at https://dtp.cancer.gov/organization/dscb/obtaining/. […] The stock solutions were prepared in dimethyl sulfoxide (DMSO, Sigma-Aldrich, St. Louis, MO, cat. D2650), except for the platinum compounds which were prepared in saline (Quality Biological, Gaithersburg, MD, cat. 114-055-101), at 800-fold the tested concentration and stored at -70 degrees C prior to their use. All drugs and investigational agents were tested over a range starting from a high concentration at or near the clinical Cmax and decreasing in half-log increments. If the clinical Cmax for an agent had not been determined, the highest concentration tested was 10 microM, except for SN-38, which was tested at a high concentration of 1 microM.
Cell Culture. All cells were maintained in an incubator at 37 degrees C and 5% CO2 with 95% humidity. The PDC lines were cultured according to standard operating procedures established by the NCI PDMR (https://pdmr.cancer.gov). Table 3 of the manuscript, lists the cell lines along with the number of the three cell types plated to form the mct-spheroids and media for tumor cell growth. After thawing, all PDC lines, except 997537-175-T-J1-PDC and 415267-285-R-J2-PDC, were cultured in Matrigel-coated flasks prepared with a working solution of 1X Ham's F-12 nutrient mix, without supplementation (Thermo Fisher Scientific, cat. 11765054), 100 U/mL penicillin-streptomycin (Thermo Fisher Scientific, cat. 15140122), and 2.5% Matrigel (Corning Inc., Corning, NY, cat. 354248) for the first three passages. The two PDC lines 997537-175-T-J1-PDC and 415267-285-R-J2-PDC were cultured on uncoated flasks. The 857933-349-R-J2-PDC line was cultured in 6C/Colon 1B media containing advanced DMEM/F-12 (Thermo Fisher Scientific, cat. 12634028), 10 mM HEPES (Thermo Fisher Scientific, cat. 15630080), 1X GlutaMAX supplement (Thermo Fisher Scientific, cat. 35050061), 0.1 mg/mL primocin (InvivoGen, San Diego, CA, cat. ant-pm-2), 10% defined fetal bovine serum, heat inactivated (HyClone Laboratories Inc., Logan, UT, cat. SH30070.03HI), 50% L-WRN conditioned media (ATCC, cat. CRL-3276), 1.25 mM N-Acetyl-L-cysteine (Sigma-Aldrich, cat. A9165), 10 mM nicotinamide (Sigma-Aldrich, cat. N0636), 1X B-27 supplement (Thermo Fisher Scientific, cat. 17504044), 1X N-2 supplement (Thermo Fisher Scientific, cat. […]
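Further: spheroids exposed to compounds for seven days before readout.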
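Wherever viability, T/C is given: 100% = DMSO vehicle control viability.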

SMILES | viability, T/C (compound 0.0316 µM) | viability, T/C (compound 0.1 µM) | viability, T/C (compound 0.316 µM) | viability, T/C (compound 1 µM) | viability, T/C (compound 3.16 µM) | viability, T/C (compound 10 µM) | pIC50 (compound alone, run of 01/19/2024) | viability, T/C (compound 0.000316 µM) | viability, T/C (compound 0.001 µM) | viability, T/C (compound 0.00316 µM) | viability, T/C (compound 0.01 µM) | pIC50 (curve of compound)
Nc1ccc(C#CCN(C(=O)Cc2ncc(C(F)(F)F)cc2C(F)(F)F)c2ccc(F)cc2)nn1 | 102% [middle of 13 runs] | 98% [middle of 13 runs] | 102% [middle of 13 runs] | 99.9% [middle of 13 runs] | 104% [middle of 13 runs] | 112% [middle of 13 runs] | < 5.00 |  |  |  |  | 
CC[C@@]1(O)C(=O)OCc2c1cc1n(c2=O)Cc2cc3c(CN(C)C)c(O)ccc3nc2-1 | 65.8% and 77.7% and 65.3% | 53.6% and 63.2% and 48.6% |  |  |  |  |  | 97.3% and 105% and 101% | 92.3% and 95.7% and 97% | 104% and 94.3% and 91.6% | 83.4% and 88.9% and 88.8% | < 7.00 and 7.05
C#Cc1c(F)ccc2cc(O)cc(-c3ncc4c(N5CC6CCC(C5)N6)nc(OCC56CCCN5CC(F)C6)nc4c3F)c12 (configuration not stated) | 98% and 83% and 93.6% | 95% and 94% and 84.2% | 101% and 82% and 104% | 95.3% and 81.1% and 88.5% | 94.2% and 83% and 85.1% | 72.5% and 74.3% and 83.1% |  |  |  |  |  | < 5.00
CC1COCCN1c1cc(C2(S(C)(=N)=O)CC2)nc(-c2ccnc3[nH]ccc23)n1 (configuration not stated) | 98.9% and 101% and 87.7% | 89.9% and 94.3% and 103% | 98.4% and 83.1% and 84% | 71% (2×) and 73.5% | 54.2% and 53.8% and 48.3% | 30.1% and 34.3% and 34.5% |  |  |  |  |  | 5.46 and 5.39 and 5.55
COc1cc2cc(C(=O)CCC(=O)O)sc2cc1OC | 95.8% and 105% and 103% | 112% and 90% and 89.7% | 91.7% and 102% and 96.7% | 99.3% and 108% and 87.7% | 105% and 96.4% and 83.4% | 104% and 107% and 93.9% |  |  |  |  |  | < 5.00
CCc1cc2c(N3CCc4c(cc(Cn5ccnc5)cc4-c4cn(C)nc4C(F)(F)F)C3=O)cc(C)nc2c(OC)n1 | 106% and 92.1% and 103% | 91.4% and 85.8% and 99.9% | 116% and 83.7% and 101% | 91% and 107% and 80.5% | 75% and 69.3% and 71.5% | 54.1% and 46.2% and 47.7% |  |  |  |  |  | < 5.00 and 5.08 and 5.04
